Source: publication PMC8878324, “Evaluation of New Antimicrobial Agents Based on tris(1H-Indol-3-yl)methylium Salts: Activity, Toxicity, Suppression of Experimental Sepsis in Mice” (Pharmaceuticals, 2022)
Like-named read-outs stand apart in the source and are kept apart here.

Legend:
Assay type in all cases: in vivo
[1] = system: SHK mice; test: Acute toxicity study, intravenous; conditions: for LD16 / LD84 / LD100: single intravenous; for time of death of animals after administration: in words
Experimental: (§1) In toxicological experiments with each compound, 72 to 108 animals were used and divided into 8 or 9 experimental groups (6 to 12 mice each), in which the animals received various doses of the tested compounds. There was also a control group of animals, which was injected with the corresponding solvent instead of the experimental compound, and a control group of intact animals. The prepared substances were injected into the animals intravenously (into the tail vein); the dose range was from 1.0 to 100 mg/kg.
(§2) The study was conducted on adult female SHK mice (18–20 g) obtained from the animal breeding unit of the FMBA (Scientific Center for Biomedical Technologies of the Federal Biomedical Agency, Moscow, Russia). The animals were randomly divided into groups (n = 6 for the study of acute toxicity, n = 10 (or 8) to study the efficacy of suppressing staphylococcal sepsis). The study of the effectiveness of drugs in the treatment of staphylococcal sepsis required the use of 110–175 mice for each drug, 10 animals per group. The animal study was approved by the Ethics of Animal Experimentation of Gause Institute of New Antibiotics (protocol No 13/2019).
(§3) To prepare solutions of preparations suitable for intravenous administration, dried test compounds with a purity of at least 99% were dissolved in a 5% glucose solution for intravenous administration at a concentration of 3.2 or 6.4 mg/mL. The solutions were sterilized by filtration through Sterivex 0.22 μm filters (Millipore, Burlington, MA, USA). Sterile solutions of drugs with a reduced concentration were then prepared, which allowed for the introduction ofvarious doses of drugs with the same volume (0.2 mL) of solutions. The test preparations were stored at a temperature no higher than 25 °C.
(§4) The study of acute toxicity of each drug was conducted on 72 mice (6 mice per group) using a solution of the test drug prepared in 5% glucose solution. The drug was injected into the tail vein of the animals (0.2 mL) using a syringe with a metal needle in a dose range of 1.0 mg/kg to 70 mg/kg.
(§5) From the first day after administration, the animals were under continuous observation. The number of dead animals and the time of their death were recorded daily. The body weight of the animals and their food consumption was recorded once a week, and the clinical signs of the animals’ health were assessed daily. The duration of observation of the animals was at least 30 days after the last death of the animal. Doses characterizing the toxicity of drugs were calculated by the Litchfield and Wilcoxon method using the StatPlus 2006 software AnalystSoft StatPlus—statistical analysis program, version 2006 (http://www.analystsoft.com/, accessed 11 January 2022). The mean and standard deviation were calculated for all data. The differences are defined as significant at p ≤ 0.05.

[2] = Acute toxicity study, intravenous; conditions: female, SHK, mouse, in vivo, mice, single intravenous; for MTD: read-out: MTD (LD10)
Experimental: as §1, §2, §3, §4, §5

[3] = system: S. aureus 10; test: Model of staphylococcal sepsis in mice; conditions: for Death (%) / Survival Rate (%): 14 days; for Dead animals/survivors: 3 mg/kg
Experimental: To determine the ability of drugs to suppress staphylococcal sepsis, a clinical isolate of S. aureus 10, lacking drug resistance and adapted for use in animals, was used. Animals, divided into several experimental groups, were intravenously infected with a lethal dose of S. aureus (0.1 mL each) (Groups 1–5). […] Along with the testing of compounds of the trisndolylmethylium class, a similar experiment was carried out with levofloxacin, taken as a reference drug for a separate group of animals (Group 4). The control group of animals received an intravenous injection of 5% glucose solution instead of the tested preparations (Group 5). Another control group, which also received a single injection of 5% glucose solution, consisted of animals that were not exposed to infection (Group 6). To study each drug, 110–150 animals were required, which were divided into small subgroups of 10 mice each to test various doses of the compounds studied. The number of dead animals and the time of their death were recorded daily, and the appearance of the animals and their weight were assessed. The duration of the experiment was 14 days.
as §2
The experiment used a strain of S. aureus 10, having no drug resistance and adapted for use in animals. Initially, the 100% lethal dose (LD100) was determined for this pathogen strain in SHK mice, i.e., the dose of the pathogen at which the death of 100% of the animals was recorded. LD100 dose of staphylococcus detected in the experiment was 8.0 × 10^8 CFU/mouse, which was then used for infecting animals.
The chemotherapeutic efficacy of tris(indolyl)methane derivatives was determined in a model of staphylococcal sepsis in mice. Mice of the SHK colony, weighing 18–20 g, were infected intravenously (into the tail vein) with a lethal dose of staphylococcus (0.1 mL of solution). One hour after infection, mice were injected intravenously (0.2 mL of solution each) with the tested tris(indolyl)methane derivatives in the range of doses from 0.1 to 40 mg/kg. For tested drugs, we used solutions prepared in 5% glucose solution. The study of the effectiveness of each drug was conducted on 115–155 mice (10 mice per group). The duration of the experiment was 14 days. The number of dead animals and the time of their death were recorded daily, and the body weight of the animals was recorded three times a week. Their feed intake was monitored, and clinical signs of animal health were assessed daily.
To determine the effectiveness of the tested drugs, 50% effective doses (ED50) were used, which was determined by the Behrens method (frequency accumulation method), as well as by the Litchfield and Wilcoxon method using the StatPlus 2006 software. For all data, the mean and standard deviation were calculated. The differences were defined as significant at p ≤ 0.05.

[4] = 3 mg/kg i.v., Double administration
[5] = Staphylococcus aureus, 10, iv, 1 h
[6] = single i.v. 3.0 mg/kg 1 h after infection
[7] = single i.v. 5.0 mg/kg 1 h after infection
[8] = single i.v. 7.0 mg/kg 1 h after infection
[9] = single i.v. 9.0 mg/kg 1 h after infection
[10] = single i.v. 11.0 mg/kg 1 h after infection
[11] = single i.v. 13.0 mg/kg 1 h after infection
[12] = single i.v. 10.0 mg/kg 1 h after infection
[13] = single i.v. 15.0 mg/kg 1 h after infection
[14] = single i.v. 20.0 mg/kg 1 h after infection
[15] = single i.v. 25.0 mg/kg 1 h after infection
[16] = single i.v. 30.0 mg/kg 1 h after infection
[17] = single i.v. 35.0 mg/kg 1 h after infection
[18] = single i.v. 0.5 mg/kg 1 h after infection
[19] = single i.v. 1.0 mg/kg 1 h after infection
[20] = single i.v. 1.5 mg/kg 1 h after infection
[21] = single i.v. 1.75 mg/kg 1 h after infection
[22] = single i.v. 2.0 mg/kg 1 h after infection
[23] = single i.v. 4.0 mg/kg 1 h after infection
[24] = single i.v. 6.0 mg/kg 1 h after infection

## OCCCCCn1cc([C+](c2cn(CCCCCO)c3ccccc23)c2cn(CCCCCO)c3ccccc23)c2ccccc21.[Cl-] [Compound 1, tris(1-(5-Hydroxypentyl)-1H-indol-3-yl) methylium chloride]
[1]; intravenous, lethal doses
  time of death of animals after drug administration: ≤ 15 min
[1]
  LD16: 23.4 mg/kg
  LD84: 28.9 mg/kg
  LD100: 30.2 mg/kg
[2]
  LD50: 26.2 mg/kg
  MTD: 22.6 mg/kg
[3]; [4]
  Death (%): 75%
  Survival Rate (%): 25%
[3]; Double, day 0
  Dead animals/survivors: 0/8
[3]; Double, day 3
  Dead animals/survivors: 0/8
[3]; Double, day 4
  Dead animals/survivors: 1/7
[3]; Double, day 6
  Dead animals/survivors: 3/5
[3]; Double, day 7
  Dead animals/survivors: 4/4
[3]; Double, day 8
  Dead animals/survivors: 4/4
[3]; Double, day 9
  Dead animals/survivors: 5/3
[3]; Double, day 10
  Dead animals/survivors: 6/2
[3]; Double, day 12
  Dead animals/survivors: 6/2
[3]; Double, day 14
  Dead animals/survivors: 6/2
[3]; One-time, day 0
  Dead animals/survivors: 0/8
[3]; One-time, day 3
  Dead animals/survivors: 1/7
[3]; One-time, day 4
  Dead animals/survivors: 2/6
[3]; One-time, day 6
  Dead animals/survivors: 4/4
[3]; One-time, day 7
  Dead animals/survivors: 5/3
[3]; One-time, day 8
  Dead animals/survivors: 5/3
[3]; One-time, day 9
  Dead animals/survivors: 6/2
[3]; One-time, day 10
  Dead animals/survivors: 7/1
[3]; One-time, day 12
  Dead animals/survivors: 7/1
[3]; One-time, day 14
  Dead animals/survivors: 7/1
[3]; Three-fold, day 0
  Dead animals/survivors: 0/8
[3]; Three-fold, day 3
  Dead animals/survivors: 0/8
[3]; Three-fold, day 4
  Dead animals/survivors: 1/7
[3]; Three-fold, day 6
  Dead animals/survivors: 2/6
[3]; Three-fold, day 7
  Dead animals/survivors: 3/5
[3]; Three-fold, day 8
  Dead animals/survivors: 3/5
[3]; Three-fold, day 9
  Dead animals/survivors: 4/4
[3]; Three-fold, day 10
  Dead animals/survivors: 5/3
[3]; Three-fold, day 12
  Dead animals/survivors: 5/3
[3]; Three-fold, day 14
  Dead animals/survivors: 5/3
[3]; [5]
  ED50: 7.6 mg/kg
[3]; dose of 9–11 mg/kg, single i.v.
  survival rate: ~40%
[3]; [6]
  Death (%): 87.5%
  Survival Rate (%): 12.5%
[3]; [7]
  Death (%): 75%
  Survival Rate (%): 25%
[3]; [8]
  Death (%): 75%
  Survival Rate (%): 25%
[3]; [9]
  Death (%): 62.5%
  Survival Rate (%): 37.5%
[3]; [10]
  Death (%): 62.5%
  Survival Rate (%): 37.5%
[3]; [11]
  Death (%): 75%
  Survival Rate (%): 25%

## CCCn1cc([C+](c2cn(CCC)c3ccccc23)c2cn(C3=C(N)C(=O)NC3=O)c3ccccc23)c2ccccc21.[Cl-] [Compound 2, (1-(4-Amino-2,5-dioxo-2,5-dihydro-1H-pyrrol-3-yl)-1H-indol-3-yl)bis(1-propyl-1H-indol-3-yl) methylium chloride]
[1]; intravenous
  lethal dose causing the death of more than 50% of the animals: 35 to 50 mg/kg
  time of death of animals after administration: in the first two hours after administration
[1]
  LD16: 35.8 mg/kg
  LD84: 47.7 mg/kg
  LD100: 50.7 mg/kg
[2]
  LD50: 41.8 mg/kg
  MTD: 34.1 mg/kg
[3]; [5]
  ED50: 18.3 mg/kg
[3]; [7]
  Death (%): 80%
  Survival Rate (%): 20%
[3]; [12]
  Death (%): 70%
  Survival Rate (%): 30%
[3]; [13]
  Death (%): 60%
  Survival Rate (%): 40%
[3]; [14]
  Death (%): 40%
  Survival Rate (%): 60%
[3]; [15]
  Death (%): 40%
  Survival Rate (%): 60%
[3]; [16]
  Death (%): 20%
  Survival Rate (%): 80%
[3]; [17]
  Death (%): 30%
  Survival Rate (%): 70%

## CCCn1cc([C+](c2cn(CCC)c3ccccc23)c2cn(C3=C(N(C)C)C(=O)NC3=O)c3ccccc23)c2ccccc21 [Compound 3, 1-(4-Dimethylamino-2,5-dioxo-2,5-dihydro-1H-pyrrol-3-yl) -1H-indol-3-yl) bis(1-propyl-1H-indol-3-yl) methylium chloride]
[1]; intravenous
  lethal dose causing the death of more than 50% of the animals: 25 to 40 mg/kg
  time of death of animals after administration: during the first day after administration
[1]
  LD16: 18.5 mg/kg
  LD84: 29.8 mg/kg
  LD100: 32.6 mg/kg
[2]
  LD50: 24.2 mg/kg
  MTD: 16.9 mg/kg
[3]; Staphylococcus aureus, 10, single intravenous administration 1 h after infection, read-out: ED50
  ED50: 1.09 mg/kg
[3]; experimental group 3
  first mortality, day of the experiment: 6 to 7 days
  last death, day of the experiment: 12 days
[3]; [18]
  Death (%): 70%
  Survival Rate (%): 30%
[3]; [19]
  Death (%): 50%
  Survival Rate (%): 50%
[3]; [20]
  Death (%): 40%
  Survival Rate (%): 60%
[3]; [21]
  Death (%): 10%
  Survival Rate (%): 90%
[3]; [22]
  Death (%): 0%
  Survival Rate (%): 100%

## C[C@H]1COc2c(N3CCN(C)CC3)c(F)cc3c(=O)c(C(=O)O)cn1c23 [Levofloxacin, levofloxacin, reference compound]
[3]; [5]
  ED50: 3.5 mg/kg
[3]; [19]
  Death (%): 90%
  Survival Rate (%): 10%
[3]; [22]
  Death (%): 60%
  Survival Rate (%): 40%
[3]; [23]
  Death (%): 40%
  Survival Rate (%): 60%
[3]; [24]
  Death (%): 30%
  Survival Rate (%): 70%
[3]; single injection
  dose that saved the lives of 50% of infected animals: about 4 mg/kg
